Assay results: paper PMC8234462, “Novel Cyclophilin Inhibitor Decreases Cell Proliferation and Tumor Growth in Models of Hepatocellular Carcinoma” (Cancers, 2021)
Where two headings read alike, the source gives them in different places.

Legend:
[1] = tested on: Bone marrow progenitors; assay: Cytotoxicity, colony formation; format: cell-based, human; conditions: Homo sapiens, 336 h, 14 days of treatment, colonies counted
Description: The evaluation of the off-target effects of NV651 was performed by ImQuest BioSciences Inc. (Frederick, MD, USA) by analyzing the cytotoxicity in a panel of primary cells. NV651 was evaluated at a concentration of 30 µM and five serial half-logarithmic dilutions in triplicate. The positive control compounds for each cell type were purchased from Sigma-Aldrich (St. Louis, MO, USA) and were as follows: Unstimulated human peripheral blood mononuclear cells (PBMCs), phytohemagglutinin (PHA)-stimulated PBMCs, monocytes/macrophages, dendritic cells, hepatocytes, induced pluripotent stem cell (iPS) neurons: […] AZT, kidney cells (RPTEC): cisplatin and iPS cardiomyocytes: Doxazosin. Bone marrow progenitor cells (Invitrogen, Waltham, MA, USA) were suspended in cell culture medium (Iscove-modified Dulbecco medium) containing 15% FBS, 10% giant tumor-conditioned medium (Bone Marrow Plus, Sigma-Aldrich, St. […] Cells (1 × 10^5 cells/well) were seeded in 6-well plates containing NV651 in triplicate. Cells were incubated for 14 days, and colonies (more than 30 cells) were counted.

[2] = tested on: primary human hepatocytes; assay: Cell health parameters by fluorescent imaging (ArrayScan); format: cell-based; conditions: for AC50: Hepatocyte
Description: This experiment was performed in Cyprotex (Watertown, MA, USA). Cryopreserved Primary human hepatocytes plated on 384 black-well plate cells were dosed with NV651 at a range of concentrations (0.195, 0.391, 0.781, 1.56, 3.13, 6.25, 12.5, 25, 50 and 100 µM). At the end of the incubation period (24 or 48 h), several health parameters were analyzed to evaluate the potential cytotoxicity of NV651 in primary human hepatocytes, including the total cell count with Hoechst staining and PI subtraction (a nonpermeable dye to quantify dead cells), nuclear intensity, Glutathione content (GSH), mitochondrial membrane potential, reactive oxygen species (ROS), steatosis, nuclear size and DNA structure. Plates were then scanned using an automated fluorescent cellular imager, ArrayScan (Thermo Scientific Cellomics).

[3] = tested on: Luc+ HEPG2 xenograft; assay: In vivo efficacy, xenograft tumor growth; set-up: species or system NMRI nude mice; conditions: 10 mg/kg daily subcutaneous
Description: Twenty-five percent buffered Hydroxy Propyl beta Cyclodextrin (HPbCD) was prepared from Hydroxy Propyl beta Cyclodextrin (Roquette, Lestrem, France), EDTA solution and phosphate buffer at a pH of 7.4, filtered with a […] (VWR, Cat# 28145-483, Radnor, PA, USA) and stored at 4 °C. NV651 was prepared at a concentration of 10 mg/kg with 25% buffered HPbCD (vehicle). NV651 solution was sonicated for 30 min in a water bath sonicator (Bioruptor, Diagenode, Denville, NJ, USA) and shaken for up to an hour, followed by a secondary sterilization with a 0.2-µm filter. NV651 solution was stored at 4 °C up to 2 weeks, with stability confirmed up to 3 weeks.
HEPG2 cells were transduced with RediFect Red-FLuc-GFP (Perkin Elmer, Cat# CLS960003, Waltham, MA, USA) with a MOI = 3 and sorted for GFP^+ in a FACSAria III (BD Biosciences, Franklin Lakes, NJ, USA). […] Cell viability and a percentage of the GFP^+ cells were analyzed before the start of the in vivo experiment with a BD FACSverse cytometer (BD Biosciences, Franklin Lakes, NJ, USA). […]
Tumor growth was assessed with an in vivo imaging system (IVIS) one week after the injection of the cells. […] Body weights were measured at time 0 of the treatment and twice a week after the beginning of the treatment. […] Tumor growth was analyzed for up to 3 weeks. […]

CC(=O)CCC1C(=O)NC(C(C)C)C(=O)NC(Cc2cc(O)cc(F)c2)C(=O)N2CCCC(N2)C(=O)OC(C(C)=CC=CC(=O)OC(C)(C)C)CC=CC=CC(O)C(C)C1O (stereo not shown) [NV651]
IC50 [1]: > 30 µM
MEC, Glutathione content ([2]; 24 h): 2.62 µM
MEC, Mitochondrial Membrane potential ([2]; 24 h): 12.40 µM
MEC, Nuclear intensity ([2]; 24 h): 8.90 µM
MEC, ROS ([2]; 24 h): 6.43 µM
MEC, Cell count (PI corrected) ([2]; 48 h): 6.14 µM
MEC, DNA structure ([2]; 48 h): 10.90 µM
MEC, Nuclear size ([2]; 48 h): 18.10 µM
MEC, Steatosis ([2]; 48 h): 6.81 µM
AC50 ([2]; 24 h, read-out: AC50, Glutathione content): 10.9 µM
AC50 ([2]; 24 h, read-out: AC50, Mitochondrial Membrane potential): 14.2 µM
AC50 ([2]; 24 h, read-out: AC50, Nuclear intensity): 8.94 µM
AC50 ([2]; 24 h, read-out: AC50, ROS): 8.17 µM
AC50 ([2]; 48 h, read-out: AC50, Cell count (PI corrected)): 13.9 µM
AC50 ([2]; 48 h, read-out: AC50, DNA structure): 34.4 µM
AC50 ([2]; 48 h, read-out: AC50, Nuclear size): 21.5 µM
AC50 ([2]; 48 h, read-out: AC50, Steatosis): 39 µM
luminescence signal (tumor growth, IVIS) vs vehicle ([3]; after 3 weeks of treatment): significantly reduced
tumor growth by caliper measurements vs vehicle ([3]; up to 3 weeks): reduced tumor growth
